Experimental data published in patent US10196609B2, “Composition for promoting cardiac differentiation of pluripotent stem cell comprising EGFR inhibitor” (Kyoto University, priority 2013, dated 2019).

Columns and labels:
[1] = system: human iPS cells (IMR90-1); assay: Cardiac differentiation of human iPS cells in floating culture, percentage of cTnT-positive cardiomyocytes by flow cytometry; assay type: cell-based; details: 5-20 μM added Days 2-9 of culture, FIG. 7
Experimental: (§1) Human ES cells or iPS cells subcultured with mouse feeder cells were collected. Colonies of the human ES cells or iPS cells (3-10×10^6 cells/well) were plated on 6-well plates of Ultra-low culture dish (CORNING 3261), and cultured in an IMDM-based medium having a defined composition (IMDM (Sigma) containing 1% MEM non-essential amino acid solution (Sigma), 1% penicillin-streptomycin (Gibco), 2 mM L-glutamine (Sigma), 0.5 mM L-carnitine (Sigma), 0.001% 2-mercaptoethanol (Gibco), and 0.4% human serum albumin (Sigma)) in floating culture for 30 days (FIG. 5). During Days 0-2 of culture (for 2 days), CHIR99021 (Axon) (4 μM) and BIO (Calbiochem) (1 μM) were added, and during Days 3-9 of culture (for 6 days) KYO2111 (10 μM) and XAV939 (1 μM) were added. […] The cardiac differentiation was evaluated by analyzing the percentage of cardiomyocytes with flow cytometry using an antibody against cardiac troponin T (cTnT), a specific marker of cardiac muscle at Day 30 of culture.

Monkey ES cells = assay: Cardiac differentiation of monkey ES cells (α-MHC promoter-GFP) in adhesion culture, GFP fluorescence by HCS; assay type: cell-based; details: for effect of promoting cardiac differentiation (GFP fluorescence): added Days 4-8 together with KYO2111 (10 µM), AG1478 20 μM, read at Day 10, FIGS. 1-3
Experimental: At Day 10 of culture, compounds that enhanced GFP fluorescence were identified by measuring GFP fluorescence with HCS (high contents screening) system (Olympus IX81 inverted microscope and Molecular device/MetaMorph imaging system).
During Days 4-8 of culture KYO2111 (10 μM) and PP3 (3 μM, 10 μM, 30 μM, or 100 μM) were added.

human ES cells (KhES-3) = assay: Cardiac differentiation of human ES cells in floating culture, percentage of cTnT-positive cardiomyocytes by flow cytometry; assay type: cell-based; details: for effect to promote cardiac differentiation in combination with XAV939 only: XAV+AG1478 or gefitinib; for effect to promote cardiac differentiation in combination with XAV939 only / effect to promote cardiac differentiation by itself: human ES or iPS cells, cell line not stated, FIG. 8; for effect to promote cardiac differentiation by itself: without addition of KYO2111 and XAV939
Experimental: as §1

Human iPS cells (253G1) = assay: Cardiac differentiation of human iPS cells in feeder-free sphere culture, cTnT flow cytometry; assay type: cell-based; details: 10 μM Days 3-9 in addition to KYO2111 (10 μM) and XAV939 (1 μM); Day 30; increased from 34% without EGFR inhibitor; FIG. 9
Experimental: Human iPS cells (253G1) were cultured in sphere culture without feeder cells (feeder-free sphere culture). In detail, 253G1 cells subcultured with mouse feeder cells were collected, the cell cluster was passed through […] (CellTrics, PARTEC04004-2327) to give uniform cell clusters having the size of 80-120 μm, the cells were plated in 6-well plates of Ultra-low culture dish (CORNING 3261) and cultured in mTeSR1 medium (Stem Cell Technology 05850) containing 3% methylcellulose (R&D, HSC001) in floating culture until the size of the colonies of the iPS cells arrived at about 200-300 μm. The cells were subcultured more than 20 times by repeating the steps of this feeder-free sphere culture. The medium was replaced with an IMDM-based medium having a defined composition (IMDM (Sigma) containing 1% MEM non-essential amino acid solution (Sigma), 1% penicillin-streptomycin (Gibco), 2 mM L-glutamine (Sigma), 0.5 mM L-carnitine (Sigma), 0.001% 2-mercaptoethanol (Gibco), and 0.4% human serum albumin (Sigma)) and the cells were cultured in floating culture for 30 days (FIG. 5). […] The cardiac differentiation was evaluated by analyzing the percentage of cardiomyocytes with flow cytometry using an antibody against cardiac troponin T (cTnT), a specific marker of cardiac muscle at Day 30 of culture.

Src kinase = Src kinase (Homo sapiens, UniProt P12931); details: cited from earlier work
Sequence of Src kinase (P12931 whole entry): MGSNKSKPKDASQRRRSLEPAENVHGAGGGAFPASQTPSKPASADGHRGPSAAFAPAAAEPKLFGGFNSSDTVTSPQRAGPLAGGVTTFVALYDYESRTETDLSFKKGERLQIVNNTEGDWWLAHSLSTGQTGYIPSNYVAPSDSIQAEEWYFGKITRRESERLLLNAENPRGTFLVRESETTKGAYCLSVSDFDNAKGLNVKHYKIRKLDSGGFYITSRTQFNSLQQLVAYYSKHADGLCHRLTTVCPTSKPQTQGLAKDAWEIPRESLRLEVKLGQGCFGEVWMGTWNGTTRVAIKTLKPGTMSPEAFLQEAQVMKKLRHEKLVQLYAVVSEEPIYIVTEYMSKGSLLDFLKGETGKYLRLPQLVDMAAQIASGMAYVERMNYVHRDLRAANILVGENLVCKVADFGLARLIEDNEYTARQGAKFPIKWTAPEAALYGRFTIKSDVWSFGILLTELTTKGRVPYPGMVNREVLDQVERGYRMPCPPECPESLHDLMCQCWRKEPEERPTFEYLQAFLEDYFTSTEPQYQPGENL

[2] = Effect to promote cardiac differentiation by the methods of WO2012/026491; assay type: cell-based; details: methods described in the Examples of WO2012/026491
Text: The effect of SO3031 (KY01-I), SO2031 (KY02-I), SO3042 (KY03-I), and SO2077 to promote cardiac differentiation was confirmed by the methods described in the Examples of WO2012/026491.

Q: With `COc1cc2ncnc(Nc3cccc(Cl)c3)c2cc1OC` [AG1478] as the compound, how does the cardiac differentiation efficiency [1] read?
A: Its cardiac differentiation efficiency is “the cardiac differentiation efficiency was increased”.

Q: And the “synergistic promotion of cardiac differentiation with KYO2111” value (Monkey ES cells; Wnt signaling inhibitor KYO2111 added together, FIG. 4)?
A: The value was “synergistically promoted cardiac differentiation”.

Q: And the “synergistic promotion of cardiac differentiation with XAV939” value (Monkey ES cells; Wnt signaling inhibitor XAV939 added together, FIG. 4)?
A: Its value is “synergistically promoted cardiac differentiation”.

Q: What about the “effect of promoting cardiac differentiation (GFP fluorescence)” value (Monkey ES cells) of the same compound?
A: Its value is “had the effect of promoting cardiac differentiation”.

Q: And the percentage of cardiomyocytes (human ES cells (KhES-3); 20 μM, Days 2-9, stated for human ES (KhES-3) and iPS (IMR90-1) cells together, Day 30, FIG. 7)?
A: Its percentage of cardiomyocytes is 92-95%.

Q: What about the cardiac differentiation efficiency (human ES cells (KhES-3); 5-20 μM added Days 2-9 of culture, KhES-3, FIG. 7) of the same compound?
A: The cardiac differentiation efficiency was “the cardiac differentiation efficiency was increased”.

Q: And the “effect to promote cardiac differentiation in combination with XAV939 only” value (human ES cells (KhES-3))?
A: Its value is “produced an effect to promote cardiac differentiation”.

Q: What about the “effect to promote cardiac differentiation by itself” value (human ES cells (KhES-3)) of the same compound?
A: The value was “produced an effect to promote cardiac differentiation”.

Q: And the percentage of cardiomyocytes (Human iPS cells (253G1))?
A: Its percentage of cardiomyocytes is “about 50%”.

Q: Which “enhancement of the effect of KYO2111 to promote cardiac differentiation” value (Monkey ES cells; PP3 3, 10, 30 or 100 μM with KYO2111 (10 μM), Days 4-8, FIG. 10) does the source give for `Nc1ncnc2c1cnn2-c1ccccc1` [PP3] here?
A: The value was “enhance the effect of KYO2111 to promote cardiac differentiation”.

Q: And the “inhibitory effect on Src kinase” value (Src kinase)?
A: The value was “no inhibitory effect”.

Q: Which “effect to promote cardiac differentiation” value [2] does the source give for `COc1ccc(CCC(=O)Nc2nc3ccc(I)cc3s2)cc1OC` [SO2031, 2-(3-(3,4-dimethoxyphenyl)propanamide)-6-iodobenzothiazole] here?
A: The value was “confirmed”.

Q: Which “effect to promote cardiac differentiation” value [2] does the source give for `CCCOc1ccc(CCC(=O)Nc2nc3ccc(I)cc3s2)cc1OC` [SO2077, 2-(3-(3-methoxy-4-propoxyphenyl)propanamide)-6-iodobenzothiazole] here?
A: Its value is “confirmed”.

Q: For `COc1ccc(CC(=O)Nc2nc3ccc(I)cc3s2)cc1OC` [SO3031, 2-(2-(3,4-dimethoxyphenyl)acetamide)-6-iodobenzothiazole], which “effect to promote cardiac differentiation” value [2] is on record?
A: The value was “confirmed”.

Q: With `COc1ccc(CCCC(=O)Nc2nc3ccc(I)cc3s2)cc1OC` [SO3042, 2-(4-(3,4-dimethoxyphenyl)butanamide)-6-iodobenzothiazole] as the compound, how does the “effect to promote cardiac differentiation” value [2] read?
A: The value was “confirmed”.

Q: What does the source list for `COc1cc2ncnc(Nc3ccc(F)c(Cl)c3)c2cc1OCCCN1CCOCC1` [gefitinib]?
A: effect of promoting cardiac differentiation (GFP fluorescence) (Monkey ES cells): have the effect of promoting cardiac differentiation; promotion of cardiac differentiation (human ES cells (KhES-3); 10 μM added Days 0-2 of culture, with CHIR99021+BIO Days 0-2, KYO2111+XAV939 Days 3-9, Day 30, FIG. 6): did not promote cardiac differentiation; effect to promote cardiac differentiation in combination with XAV939 only (human ES cells (KhES-3)): produced an effect to promote cardiac differentiation; effect to promote cardiac differentiation by itself (human ES cells (KhES-3)): produced an effect to promote cardiac differentiation; percentage of cardiomyocytes (Human iPS cells (253G1)): about 50%
